{
  "source": "the NIST ThermoML archive (doi:10.1021/je800429j)",
  "details": "283.15 K; 101.33 kPa; Liquid; Pycnometric method",
  "note": "Numbers after ± are expanded uncertainties.",
  "data": [
    {"smiles": "CCCCCC(=O)OCC(COC(=O)CCCCC)(COC(=O)CCCCC)COC(=O)CCCCC", "note": "[pentaerythritol tetrahexanoate]", "values": [
      {"measurement": "mass density", "value": "1004.2 ± 1.6", "unit": "kg/m3"}
    ]}
  ]
}
